In patent US5312815A, “Fungicidal (+)-2-(2,4-difluorophenyl)-3-methyl-1-(1H-1,2,4-triazol-1-yl)3-(6-(1H-1, 2,4-triazol-1-yl)pyridazin-3-ylthio) butan-2-ol” (Roussel Morishita Co., Ltd., priority 1992, dated 1994):
Converted amounts (≈) assume the structure as drawn.

Key:
Acute toxicity in mice = assay type: in vivo, ICR male mouse; conditions: 1000 mg/kg oral, in 0.5% MC, 5 mice per group, 7 days
[1] = test system: Aspergillus fumigatus Kawasaki strain; assay: In vivo antifungal activity, Aspergillus fumigatus infected mice, i.v.; parameters: species or system mouse; conditions: 12.5 mg/kg i.v. twice a day, 4 days
Procedure: (§1) Aspergillus fumigatus Kawasaki strain having been cultured at 27° C. for 1 week was suspended in physiological saline, and the cell suspension (3×10^6 cells) was injected into the tail vein of a 4-week-old day male mouse (9 mice per group). Two days before the infection and on the day of the infection, 100 mg/kg of cyclophosphamide was intraperitoneally administered to each animal.
(§2) For comparison, fluconazole was used as a comparative substance.

[2] = Plasma level in dogs (HPLC); assay type: in vivo, beagles (dogs); conditions: dog; for concentration at 0.5 h / concentration at 1 h / concentration at 2 h / concentration at 3 h / concentration at 5 h / concentration at 8 h / concentration at 24 h: plasma
Procedure: Two beagles per group each received an oral preparation of an inclusion complex composed of the compound of Example 1 and maltosyl-β-cyclodextrin (G2 -β-CyD) at a dose of 10 mg of the compound of Example 1 per kg-b.w. or an intravenous injection of the inclusion complex at a dose of 5 mg of the compound of Example 1 per kg-b.w. For comparison, a suspension of the compound of Example 1 in 0.5% methyl cellulose (MC) was orally administered at a dose of 10 mg per kg-b.w. A-blood sample was taken at 0.5, 1, 2, 3, 5, 8, and 24 hours after administration. After deproteination, the concentration of the compound of formula (I) in the sample was determined by high performance liquid chromatography (HPLC).

Aspergillus fumigatus = assay: In vitro antifungal activity, MIC on mycelium formation; assay type: cell-based; conditions: 37° C., 24 hours, Eagle's MEM with 10% fetal bovine serum
Procedure: (§3) Candida albicans (10^2 cells) or Aspergillus fumigatus (10^3 cells) was inoculated to 200 μl of an Eagle's minimum essential medium containing 10% fetal bovine serum and a test compound shown in Table 2 below at a dilution increasing by a factor of 2. The system was incubated at 37° C. for 24 hours in a 5 v/v% CO2 stream to obtain the minimum inhibitory concentration (MIC) on mycelium formation.

Candida albicans = assay: as above; assay type: cell-based; conditions: 37° C., 24 hours, Eagle's MEM with 10% fetal bovine serum
Procedure: as §3

[3] = test system: Candida albicans CAA-14 strain; assay: In vivo antifungal activity, Candida albicans infected mice, i.v.; parameters: species or system ICR male mouse; conditions: 5 mg/kg i.v. twice a day, 2 days, Example 1 as G2-β-CyD complex, FCZ in saline
Procedure: as §1, with “Candida albicans CAA-14” for “Aspergillus fumigatus Kawasaki”, “30°” for “27°”, “24 hours” for “1 week”, “(5×10^6” for “(3×10^6”, “5-week-old ICR” for “4-week-old day”
as §2

[4] = test system: Aspergillus fumigatus Kawasaki strain; assay: In vivo antifungal activity, Aspergillus fumigatus infected mice, oral; parameters: species or system mouse; conditions: 25 mg/kg p.o. twice a day, 4 days; for Mean Survival Days: 10 days observation; for Survival Number on Day 1 / Survival Number on Day 2 / Survival Number on Day 3 / Survival Number on Day 4 / Survival Number on Day 5 / Survival Number on Day 6 / Survival Number on Day 7 / Survival Number on Day 8 / Survival Number on Day 9 / Survival Number on Day 10: of 9 mice
Procedure: as §1, with “Asperoillus” for “Aspergillus”, “the” for “the cell”
For comparison, compound (A) shown below which is described in EP 0421210A2, fluconazole (FCZ) and itraconazole (ITZ), were used as a comparative substance. Itraconazole was administered in a polyethylene glycol (400) solution. [drawing 4]

[5] = of 9 mice, Example 1 as G2-β-CyD complex, FCZ in saline
[6] = iv, 5 mg/kg, G2-β-CyD inclusion complex
[7] = po, 10 mg/kg, G2-β-CyD inclusion complex
[8] = po, 10 mg/kg, suspension in 0.5% MC

In the case of `CC(C)(Sc1ccc(-n2cncn2)nn1)C(O)(Cn1cncn1)c1ccc(F)cc1F` (single isomer, unassigned; (+)) [Example 1, (+)-2-(2,4-difluorophenyl)-3-methyl-1-(1H-1,2,4-triazol-1-yl)-3-(6-(1H-1,2,4-triazol-1-yl)pyridazin-3-ylthio)butan-2-ol], the “life or death, acute toxicity” value (Acute toxicity in mice) is reported as “No case of death”, the “Mean Survival Days” value ([1]; Example 1 as G2-β-CyD complex, FCZ in saline, 10 days observation) is reported as > 9.0 days and the “Survival Number on Day 1” value [1, 5] is reported as 9. For the same compound, the “Survival Number on Day 2” value [1, 5] was 9, the “Survival Number on Day 3” value [1, 5] was 9 and the “Survival Number on Day 4” value ([1]; of 9 mice, G2-β-CyD complex) was 9. The “Survival Number on Day 5” value ([1]; of 9 mice, G2-β-CyD complex) was 8, the “Survival Number on Day 6” value ([1]; of 9 mice, G2-β-CyD complex) was 8 and the “Survival Number on Day 7” value ([1]; of 9 mice, G2-β-CyD complex) was 8. For the same compound, the “Survival Number on Day 8” value ([1]; of 9 mice, G2-β-CyD complex) was 7, the “Survival Number on Day 9” value ([1]; of 9 mice, G2-β-CyD complex) was 7 and the “Survival Number on Day 10” value ([1]; of 9 mice, G2-β-CyD complex) was 7. For the same compound, the “absorption from the gastrointestinal tract” value ([2]; p.o., inclusion complex with cyclodextrin derivative vs MC suspension) was “markedly increased absorption from the gastrointestinal tract”, the concentration at 0.5 h [2, 6] was 4100 ng/mL and the concentration at 1 h [2, 6] was 3400 ng/mL. The concentration at 2 h [2, 6] was 2800 ng/mL, the concentration at 3 h [2, 6] was 2000 ng/mL and the concentration at 5 h [2, 6] was 1700 ng/mL. For the same compound, the concentration at 8 h [2, 6] was 1300 ng/mL, the concentration at 24 h [2, 6] was 300 ng/mL and the concentration at 0.5 h [2, 7] was 2500 ng/mL. For the same compound, the concentration at 1 h [2, 7] was 2800 ng/mL, the concentration at 2 h [2, 7] was 2900 ng/mL and the concentration at 3 h [2, 7] was 2600 ng/mL. For the same compound, the concentration at 5 h [2, 7] was 2500 ng/mL, the concentration at 8 h [2, 7] was 2200 ng/mL and the concentration at 24 h [2, 7] was 700 ng/mL. The concentration at 0.5 h [2, 8] was 300 ng/mL, the concentration at 1 h [2, 8] was 300 ng/mL and the concentration at 2 h [2, 8] was 300 ng/mL. The concentration at 3 h [2, 8] was 200 ng/mL, the concentration at 5 h [2, 8] was 400 ng/mL and the concentration at 8 h [2, 8] was 300 ng/mL. The concentration at 24 h [2, 8] was 200 ng/mL, the “MIC on Mycelium Formation, A. fumigatus” value (Aspergillus fumigatus) was 3.13 µg/mL (≈ 7.04 µM) and the “MIC on Mycelium Formation, C. albicans” value (Candida albicans) was 0.05 µg/mL (≈ 0.112 µM). For the same compound, the “Mean Survival Days” value ([3]; 10 days observation) was > 10.0 days, the “Survival Number on Day 1” value ([3]; of 9 mice) was 9 and the “Survival Number on Day 2” value ([3]; of 9 mice) was 9. The “Survival Number on Day 3” value ([3]; of 9 mice) was 9, the “Survival Number on Day 4” value ([3]; of 9 mice) was 9 and the “Survival Number on Day 5” value ([3]; of 9 mice) was 9. The “Survival Number on Day 6” value ([3]; of 9 mice) was 9, the “Survival Number on Day 7” value ([3]; of 9 mice) was 9 and the “Survival Number on Day 8” value ([3]; of 9 mice) was 9. The “Survival Number on Day 9” value ([3]; of 9 mice) was 9, the “Survival Number on Day 10” value ([3]; of 9 mice) was 9 and the “Mean Survival Days” value ([4]; G2-β-CyD inclusion complex) was > 10 days. For the same compound, the “Mean Survival Days” value ([4]; in 0.5% MC (ITZ: in PEG 400)) was 5.9 days, the “Survival Number on Day 1” value ([4]; G2-β-CyD inclusion complex) was 9 and the “Survival Number on Day 2” value ([4]; G2-β-CyD inclusion complex) was 9. For the same compound, the “Survival Number on Day 3” value ([4]; G2-β-CyD inclusion complex) was 9, the “Survival Number on Day 4” value ([4]; G2-β-CyD inclusion complex) was 9 and the “Survival Number on Day 5” value ([4]; G2-β-CyD inclusion complex) was 9. For the same compound, the “Survival Number on Day 6” value ([4]; G2-β-CyD inclusion complex) was 9, the “Survival Number on Day 7” value ([4]; G2-β-CyD inclusion complex) was 9 and the “Survival Number on Day 8” value ([4]; G2-β-CyD inclusion complex) was 9. The “Survival Number on Day 9” value ([4]; G2-β-CyD inclusion complex) was 9, the “Survival Number on Day 10” value ([4]; G2-β-CyD inclusion complex) was 9 and the “Survival Number on Day 5” value ([4]; in 0.5% MC) was 5. The “Survival Number on Day 6” value ([4]; in 0.5% MC) was 4, the “Survival Number on Day 7” value ([4]; in 0.5% MC) was 4 and the “Survival Number on Day 8” value ([4]; in 0.5% MC) was 2. The “Survival Number on Day 9” value ([4]; in 0.5% MC) was 2, the “Survival Number on Day 10” value ([4]; in 0.5% MC) was 2 and the “Survival Number on Day 1” value ([4]; in 0.5% MC (ITZ: in PEG 400)) was 9. The “Survival Number on Day 2” value ([4]; in 0.5% MC (ITZ: in PEG 400)) was 9, the “Survival Number on Day 3” value ([4]; in 0.5% MC (ITZ: in PEG 400)) was 9 and the “Survival Number on Day 4” value ([4]; in 0.5% MC (ITZ: in PEG 400)) was 5.

In the case of `CC(C)(Sc1ccc(-n2cncn2)nn1)C(O)(Cn1cncn1)c1ccc(F)cc1F` (single isomer, unassigned; (-)) [Reference Example 12, (-)-2-(2,4-difluorophenyl)-3-methyl-1-(1H-1,2,4-triazol-1-yl)-3-(6-(1H-1,2,4-triazol-1-yl)-pyridazin-3-ylthio)butan-2-ol, reference compound], the “MIC on Mycelium Formation, A. fumigatus” value (Aspergillus fumigatus) is reported as 100 µg/mL (≈ 225 µM) and the “MIC on Mycelium Formation, C. albicans” value (Candida albicans) is reported as 1.56 µg/mL (≈ 3.51 µM).
